Experimental data published in PubChem BioAssay (NCI).
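Step 1: Grow cells in 96-well plates. Step 2: Expose to compound for 48 hours at 5 concentrations. Step 3: Interpolate endpoints linearly; if unreached, use highest concentration. GI50 is the concentration that inhibits growth by half. TGI denotes the concentration required for complete inhibition of growth.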

Assays:
Assay in all cases: growth of human tumour cells (NCI), 48 h
IGROV1 ovarian = test system: IGROV1 ovarian
OVCAR-8 ovarian = test system: OVCAR-8 ovarian
786-0 renal = test system: 786-0 renal
M14 melanoma = test system: M14 melanoma
OVCAR-3 ovarian = test system: OVCAR-3 ovarian
OVCAR-4 ovarian = test system: OVCAR-4 ovarian
DU-145 prostate = test system: DU-145 prostate
COLO 205 colon = test system: COLO 205 colon
EKVX NSCLC = test system: EKVX NSCLC
MALME-3M melanoma = test system: MALME-3M melanoma
SNB-19 CNS = test system: SNB-19 CNS
CAKI-1 renal = test system: CAKI-1 renal
BT-549 breast = test system: BT-549 breast
HOP-92 NSCLC = test system: HOP-92 NSCLC
NCI-H460 lung = test system: NCI-H460 lung
SK-MEL-28 melanoma = test system: SK-MEL-28 melanoma
HCT-116 colon = test system: HCT-116 colon
MDA-MB-231 breast = test system: MDA-MB-231 breast
NCI-H226 lung = test system: NCI-H226 lung
SF-539 CNS = test system: SF-539 CNS
UACC-62 melanoma = test system: UACC-62 melanoma
A498 renal = test system: A498 renal
UO-31 renal = test system: UO-31 renal
SW-620 colon = test system: SW-620 colon
SK-MEL-5 melanoma = test system: SK-MEL-5 melanoma
SF-295 CNS = test system: SF-295 CNS
K-562 leukemia = test system: K-562 leukemia
ACHN renal = test system: ACHN renal
CCRF-CEM leukemia = test system: CCRF-CEM leukemia
HCC-2998 colon = test system: HCC-2998 colon
OVCAR-5 ovarian = test system: OVCAR-5 ovarian
PC-3 prostate = test system: PC-3 prostate
MOLT-4 leukemia = test system: MOLT-4 leukemia
MDA-MB-468 breast = test system: MDA-MB-468 breast
A549 NSCLC = test system: A549 NSCLC
SR leukemia = test system: SR leukemia
LOX IMVI melanoma = test system: LOX IMVI melanoma
HS 578T breast = test system: HS 578T breast
SK-MEL-2 melanoma = test system: SK-MEL-2 melanoma
KM12 colon = test system: KM12 colon
T-47D breast = test system: T-47D breast
HOP-62 NSCLC = test system: HOP-62 NSCLC
U251 CNS = test system: U251 CNS
RXF 393 renal = test system: RXF 393 renal
HCT-15 colon = test system: HCT-15 colon
RPMI-8226 leukemia = test system: RPMI-8226 leukemia
SF-268 CNS = test system: SF-268 CNS
HL-60(TB) leukemia = test system: HL-60(TB) leukemia
SN12C renal = test system: SN12C renal
UACC-257 melanoma = test system: UACC-257 melanoma
TK-10 renal = test system: TK-10 renal
SK-OV-3 ovarian = test system: SK-OV-3 ovarian
NCI-H522 lung = test system: NCI-H522 lung
NCI-H23 lung = test system: NCI-H23 lung
MCF7 breast = test system: MCF7 breast
MDA-MB-435 = test system: MDA-MB-435
HT29 colon = test system: HT29 colon

CC(C)(C)c1cc(-c2cc(-c3ccccc3)[nH]c(=O)c2C#N)cc(C(C)(C)C)c1
GI50 (IGROV1 ovarian): 3.9 µM
TGI (IGROV1 ovarian): 17.6 µM
GI50 (OVCAR-8 ovarian): 3.5 µM
TGI (OVCAR-8 ovarian): 13.9 µM
GI50 (786-0 renal): 5.14 µM
TGI (786-0 renal): 18.2 µM
GI50 (M14 melanoma): 12 µM
TGI (M14 melanoma): 38.3 µM
GI50 (OVCAR-3 ovarian): 12.4 µM
TGI (OVCAR-3 ovarian): 41.5 µM
GI50 (OVCAR-4 ovarian): 2850 nM
TGI (OVCAR-4 ovarian): 10.1 µM
GI50 (DU-145 prostate): 11.3 µM
TGI (DU-145 prostate): 31.6 µM
GI50 (COLO 205 colon): 37.6 µM
TGI (COLO 205 colon): > 100 µM
GI50 (EKVX NSCLC): 6.58 µM
TGI (EKVX NSCLC): 22.6 µM
GI50 (MALME-3M melanoma): 4.53 µM
TGI (MALME-3M melanoma): 17 µM
GI50 (SNB-19 CNS): 3.03 µM
TGI (SNB-19 CNS): 10.8 µM
GI50 (CAKI-1 renal): 2810 nM
TGI (CAKI-1 renal): 11 µM
GI50 (BT-549 breast): 4.12 µM
TGI (BT-549 breast): 19 µM
GI50 (HOP-92 NSCLC): 2830 nM
TGI (HOP-92 NSCLC): 8.64 µM
GI50 (NCI-H460 lung): 3.56 µM
TGI (NCI-H460 lung): 13.1 µM
GI50 (SK-MEL-28 melanoma): 12.8 µM
TGI (SK-MEL-28 melanoma): 30.5 µM
GI50 (HCT-116 colon): 21.4 µM
TGI (HCT-116 colon): 61.4 µM
GI50 (MDA-MB-231 breast): 2720 nM
TGI (MDA-MB-231 breast): 8.82 µM
GI50 (NCI-H226 lung): 2690 nM
TGI (NCI-H226 lung): 10.3 µM
GI50 (SF-539 CNS): 5.11 µM
TGI (SF-539 CNS): 17.7 µM
GI50 (UACC-62 melanoma): 7.98 µM
TGI (UACC-62 melanoma): 22.7 µM
GI50 (A498 renal): 10.1 µM
TGI (A498 renal): 26.1 µM
GI50 (UO-31 renal): 4.11 µM
TGI (UO-31 renal): 19.1 µM
GI50 (SW-620 colon): 18.6 µM
TGI (SW-620 colon): > 100 µM
GI50 (SK-MEL-5 melanoma): 14.3 µM
TGI (SK-MEL-5 melanoma): 34.1 µM
GI50 (SF-295 CNS): 2050 nM
TGI (SF-295 CNS): 4.81 µM
GI50 (K-562 leukemia): 17.8 µM
TGI (K-562 leukemia): > 100 µM
GI50 (ACHN renal): 2700 nM
TGI (ACHN renal): 7.91 µM
GI50 (CCRF-CEM leukemia): 36.8 µM
TGI (CCRF-CEM leukemia): > 100 µM
GI50 (HCC-2998 colon): 38.8 µM
TGI (HCC-2998 colon): > 100 µM
GI50 (OVCAR-5 ovarian): 15.2 µM
TGI (OVCAR-5 ovarian): 93.2 µM
GI50 (PC-3 prostate): 11.5 µM
TGI (PC-3 prostate): 36.3 µM
GI50 (MOLT-4 leukemia): 14.2 µM
TGI (MOLT-4 leukemia): > 100 µM
GI50 (MDA-MB-468 breast): 10.3 µM
TGI (MDA-MB-468 breast): 29.7 µM
GI50 (A549 NSCLC): 3.71 µM
TGI (A549 NSCLC): 15.9 µM
GI50 (SR leukemia): 19.4 µM
TGI (SR leukemia): > 100 µM
GI50 (LOX IMVI melanoma): 2020 nM
TGI (LOX IMVI melanoma): 4.53 µM
GI50 (HS 578T breast): 2630 nM
TGI (HS 578T breast): 8.85 µM
GI50 (SK-MEL-2 melanoma): 12 µM
TGI (SK-MEL-2 melanoma): 26.5 µM
GI50 (KM12 colon): > 100 µM
TGI (KM12 colon): > 100 µM
GI50 (T-47D breast): 6.71 µM
TGI (T-47D breast): 45.8 µM
GI50 (HOP-62 NSCLC): 3.25 µM
TGI (HOP-62 NSCLC): 11.9 µM
GI50 (U251 CNS): 3.05 µM
TGI (U251 CNS): 10.8 µM
GI50 (RXF 393 renal): 2400 nM
TGI (RXF 393 renal): 7.03 µM
GI50 (HCT-15 colon): 17.8 µM
TGI (HCT-15 colon): > 100 µM
GI50 (RPMI-8226 leukemia): 37.7 µM
TGI (RPMI-8226 leukemia): > 100 µM
GI50 (SF-268 CNS): 7.73 µM
TGI (SF-268 CNS): 46.3 µM
GI50 (HL-60(TB) leukemia): 49.2 µM
TGI (HL-60(TB) leukemia): > 100 µM
GI50 (SN12C renal): 4.09 µM
TGI (SN12C renal): 25.7 µM
GI50 (UACC-257 melanoma): 13.5 µM
TGI (UACC-257 melanoma): 36.2 µM
GI50 (TK-10 renal): 4.97 µM
TGI (TK-10 renal): 19.9 µM
GI50 (SK-OV-3 ovarian): 5.8 µM
TGI (SK-OV-3 ovarian): 22 µM
GI50 (NCI-H522 lung): 15.1 µM
TGI (NCI-H522 lung): 73.3 µM
GI50 (NCI-H23 lung): 6.22 µM
TGI (NCI-H23 lung): 22.4 µM
GI50 (MCF7 breast): 12.9 µM
TGI (MCF7 breast): 39.1 µM
GI50 (MDA-MB-435): 14.6 µM
TGI (MDA-MB-435): 43.1 µM
GI50 (HT29 colon): 23.4 µM
TGI (HT29 colon): 62 µM
